Results taken from US5460829A, “Pharmaceutical compositions based on ebastine or analogues thereof” (Rhone-Poulenc Rorer S.A., priority 1991, dated 1995).

Legend:
Water solubility at pH 2 = format: physicochemical
[1] = Bioavailability of solid form; format: in vivo; details: formulated in solid form
[2] = Dissolution of the active principle in aqueous/acidic medium; format: physicochemical; details: oral administration

| solubility (Water solubility at pH 2; water, in the form of the lactate, pH 2, read-out: optimum solubility) | water solubility (Water solubility at pH 2; basic non-salified form, relative to the lactate) | bioavailability [1] | dissolution time in the aqueous medium of the stomach [2] | Compound |
| --- | --- | --- | --- | --- |
| 800 µg/mL | – | – | – | CC(C)(C)c1ccc(C(=O)CCCN2CCC(OC(c3ccccc3)c3ccccc3)CC2)cc1 [compound of formula (I) lactate] |
| – | even lower | very mediocre | very long | CC(C)(C)c1ccc(C(=O)CCCN2CCC(OC(c3ccccc3)c3ccccc3)CC2)cc1 [compound of formula (I), 4-diphenylmethoxy-1-[3-(4-tert-butylbenzoyl)propyl]piperidine] |
